Among the data in US9464141B2, “Anti-ETBR antibodies and immunoconjugates” (Genentech, Inc., priority 2012, dated 2016) are EC50 values, retold here.

Test in all cases: In vitro cell proliferation, CellTiter-Glo, 5 days
Common to all, as to type: cell-based
Common to all, as to conditions: free linker-drug (without antibody)
(Cellular ATP, detected with luciferase, serves as a proxy for viable cell number.)

Assay [1] concerns In vitro-derived resistant UACC-257X2.2 cells. How it is done:
For resistance developed in vitro, UACC-257X2.2 cells were adapted to increasing concentrations of anti-ETBR-vc-MMAE in culture dishes over the course of two months.
(§1) In vitro cell proliferation of the cell lines in the presence of the immunoconjugates was assessed. Cells were plated at 1,500 cells per well in 50 μL of normal growth medium in 96-well clear-bottom plates. Twenty-four hours later, an additional 50 μL of culture medium with serial dilutions of immunoconjugates (ch5E9-vc-MMAE or control anti-gD-vc-MMAE) were added to triplicate wells. Five days later, cell survival was determined using CellTiter-Glo Luminescent Cell Viability Reagent (G7572, Promega Corporation, Madison, Wis.) using an EnVision 2101 Mutilabel Reader (Perkin-Elmer, Waltham, Mass.).

For assay [2], the system named is Parental UACC-257X2.2 cells. How it is done:
as §1

The test system of assay [3] is In vivo-derived resistant UACC-257X2.2 cells. On the procedure: For resistance developed in vivo, NCr nude mice (Taconic, Hudson, N.Y.) were inoculated subcutaneously in the dorsal right flank with 5 million UACC-257X2.2 cells in HBSS with Matrigel. UACC-257X2.2 cells are derived from UACC-257 cells (National Cancer Institute) and optimized for growth in vivo as follows. UACC-257 cells were injected subcutaneously in the right flank of female NCr nude mice to induce tumor growth. One tumor was harvested and grown in vitro (referred to as UACC-257X1.2 cell line). The UACC-257X1.2 line was injected again subcutaneously in the right flank of female NCr nude mice to improve the growth of the cell line in vivo. A tumor from the second injection round was collected and again adapted for in vitro growth to generate UACC-257X2.2.
Ten mice inoculated with UACC-257X2.2 cells were dosed with 3 mg/kg hu5E9.v1-MC-vc-PAB-MMAE intravenously on day 0. […]
In vitro cell proliferation of the cell lines in the presence of the immunoconjugates was assessed. […] Five days later, cell survival was determined using CellTiter-Glo Luminescent Cell Viability Reagent (G7572, Promega Corporation, Madison, Wis.) using an EnVision 2101 Mutilabel Reader (Perkin-Elmer, Waltham, Mass.).

SMILES strings stand for the structures. Starred links: 1 amine or outer side, 2 acyl side, 3 side chain; linkers in the order of their positions; H or OH if unused. Non-standard residues stand in square brackets, D forms with d. Residues, ends and D or L forms follow the SMILES beside them. *: point of attachment. Dolaproine = CO[C@@H]([C@@H]1CCCN1)[C@@H](C)C(=O)O; Hexanoyl(6-maleimido) = O=C1C=CC(=O)N1CCCCCC(=O)*; Dil = CC[C@H](C)[C@H](NC)[C@@H](CC(=O)O)OC; PABC = O=C(OCc1ccc(N[*:1])cc1)[*:2]; X1 = C[C@@H](N*)[C@@H](O)c1ccccc1; Cit = NC(=O)NCCC[C@H](N)C(=O)O; NMeV = CN[C@H](C(=O)O)C(C)C

As for `CC[C@H](C)[C@@H]([C@@H](CC(=O)N1CCC[C@H]1[C@H](OC)[C@@H](C)C(=O)N[C@H](C)[C@@H](O)c1ccccc1)OC)N(C)C(=O)[C@@H](NC(=O)[C@H](C(C)C)N(C)C(=O)OCc1ccc(NC(=O)[C@H](CCCNC(N)=O)NC(=O)[C@@H](NC(=O)CCCCCN2C(=O)C=CC2=O)C(C)C)cc1)C(C)C` [free MC-vc-PAB-MMAE] ({Hexanoyl(6-maleimido)}-V[Cit][PABC][NMeV]V[Dil][Dolaproine]-X1), the figures for the EC50 in assay [1], in assay [2] and in assay [3] were 3.5 nM, 0.28 nM and 0.77 nM, respectively.

The term EC50 denotes the concentration needed to bring the measured effect to its halfway point.
